The values below come from ChEMBL document CHEMBL2146420, “RXR Partial Agonist CBt-PMN Exerts Therapeutic Effects on Type 2 Diabetes without the Side Effects of RXR Full Agonists” (ACS Med Chem Lett, 2012).

The structures appear in SMILES notation. The source made the active and inactive calls. No cut-off for these calls is given here.

Series [1] deals with Mus musculus. The experiment in a line: Upregulation of Irs2 mRNA expression in KK-Ay mouse liver at 10 mg/kg/day, po administered for 14 days by RT-PCR analysis. Format: functional, organism-based.
Series [2] deals with Mus musculus. The experiment in a line: Upregulation of Slc2a1 mRNA expression in KK-Ay mouse liver at 10 mg/kg/day, po administered for 14 days by RT-PCR analysis. The format is functional, organism-based.
Series [3] relates to Mus musculus. The series is described as follows: Upregulation of Slc2a2 mRNA expression in KK-Ay mouse liver at 10 mg/kg/day, po administered for 14 days by RT-PCR analysis. The format is functional, organism-based.
Series [4] relates to Mus musculus. The series is described as follows: Downregulation of G6p mRNA expression in KK-Ay mouse liver at 10 mg/kg/day, po administered for 14 days by RT-PCR analysis. Format: functional, organism-based.
Series [5] deals with Mus musculus. The series is described as follows: Downregulation of Pck mRNA expression in KK-Ay mouse liver at 10 mg/kg/day, po administered for 14 days by RT-PCR analysis. Format: functional, organism-based.
For series [6], the system named is Mus musculus. The experiment in a line: Upregulation of Fasn mRNA expression in KK-Ay mouse liver at 10 mg/kg/day, po administered for 14 days by RT-PCR analysis. Conditions: in vivo, 336 h. Format: ADME, organism-based. Further details: route oral.
Series [7] addresses T1, Peroxisome proliferator-activated receptor gamma (Homo sapiens) (UniProt P37231).
T1 sequence (whole entry): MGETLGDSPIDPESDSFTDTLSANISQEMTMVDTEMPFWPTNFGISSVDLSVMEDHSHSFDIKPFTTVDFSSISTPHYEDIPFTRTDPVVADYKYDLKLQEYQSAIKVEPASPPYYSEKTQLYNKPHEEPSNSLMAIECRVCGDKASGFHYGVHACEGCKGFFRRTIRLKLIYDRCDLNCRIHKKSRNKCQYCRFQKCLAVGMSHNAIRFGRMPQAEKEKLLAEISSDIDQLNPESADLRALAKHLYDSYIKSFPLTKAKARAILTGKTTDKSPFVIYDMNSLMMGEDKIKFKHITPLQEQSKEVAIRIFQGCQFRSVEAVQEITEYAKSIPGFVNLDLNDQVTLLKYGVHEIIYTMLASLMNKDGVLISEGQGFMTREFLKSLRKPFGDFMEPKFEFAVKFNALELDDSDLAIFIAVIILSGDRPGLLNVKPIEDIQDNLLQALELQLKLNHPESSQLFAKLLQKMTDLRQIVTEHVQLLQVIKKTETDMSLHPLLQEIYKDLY
The series is described as follows: Agonist activity at PPARgamma expressed in […] Cos1 cells after 18 hrs by SEAP reporter gene assay. Format: functional, cell-based. Background: A reporter such as luciferase makes a cellular process visible.

Series [8] has as its target RXR alpha/PPAR gamma (Homo sapiens) (UniProt P37231+P19793). The series is described as follows: Agonist activity at PPARgamma/RXRalpha expressed in […] Cos1 cells after 18 hrs by SEAP reporter gene assay. Format: functional, cell-based.
Series [9] has as its target T2, Oxysterols receptor LXR-alpha (Homo sapiens) (UniProt Q13133).
T2 sequence (whole entry): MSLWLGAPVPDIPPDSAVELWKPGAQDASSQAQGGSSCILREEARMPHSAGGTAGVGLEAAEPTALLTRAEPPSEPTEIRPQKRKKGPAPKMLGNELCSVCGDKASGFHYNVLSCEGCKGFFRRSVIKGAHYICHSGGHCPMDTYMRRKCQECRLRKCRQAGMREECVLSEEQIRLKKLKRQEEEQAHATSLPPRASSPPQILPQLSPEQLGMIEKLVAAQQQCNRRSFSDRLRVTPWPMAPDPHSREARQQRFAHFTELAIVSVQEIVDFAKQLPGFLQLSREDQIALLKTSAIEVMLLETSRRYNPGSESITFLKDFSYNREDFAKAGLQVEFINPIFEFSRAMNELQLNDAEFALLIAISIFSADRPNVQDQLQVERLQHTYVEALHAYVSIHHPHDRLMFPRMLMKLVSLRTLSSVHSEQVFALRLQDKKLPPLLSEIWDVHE
The series is described as follows: Agonist activity at LXRalpha expressed in […] Cos1 cells after 18 hrs by SEAP reporter gene assay. The format is functional, cell-based.

Series [10] addresses Retinoic acid receptor RXR-alpha/oxysterols receptor LXR-alpha (Homo sapiens) (UniProt P19793+Q13133). The experiment in a line: Agonist activity at LXRalpha/RXRalpha expressed in […] Cos1 cells after 18 hrs by SEAP reporter gene assay. The format is functional, cell-based.
In series [11] the test system is Serum. The series is described as follows: Drug level in ICR mouse serum at 30 mg/kg, po. Set-up: dose 30 mg/kg, route oral. Format: ADME, organism-based. The settings on record: in vivo, read-out: Drug uptake.
The subject of series [12] is Mus musculus. The experiment in a line: Toxicity in ICR mouse assessed as increase in body weight at 30 mg/kg/day, po for 7 days relative to vehicle-treated control. Set-up: route oral. The settings on record: in vivo, 168 h. The format is organism-based.
For series [13], the system named is Mus musculus. The experiment in a line: Toxicity in ICR mouse assessed as increase in liver weight at 30 mg/kg/day, po for 7 days relative to vehicle-treated control. Format: organism-based. Further details: route oral. The settings on record: in vivo, 168 h.
Series [14] has as its system Mus musculus. The experiment in a line: Toxicity in ICR mouse assessed as increase in serum triglyceride level at 30 mg/kg/day, po for 7 days relative to vehicle-treated control. The format is organism-based. Further details: route oral. The settings on record: in vivo, 168 h.
Series [15] relates to Rattus norvegicus. The experiment in a line: Toxicity in male Sprague-Dawley rat assessed as enlarged testes at 30 mg/kg/day, po for 28 days relative to vehicle-treated control. Format: organism-based, Testis. Set-up: route oral. The settings on record: in vivo, 672 h.
Series [16] has as its system Mus musculus. The series is described as follows: Antidiabetic activity in diabetic, obese KK-Ay mouse assessed as blood glucose level at 10 mg/kg/day, po administered for 14 days measured on day 3 after starting of dosing (reference value: 500 mg/dL). Format: functional.
Series [17] deals with Mus musculus. The series is described as follows: Antidiabetic activity in diabetic, obese KK-Ay mouse assessed as increase in adiponectin level at 10 mg/kg/day, po administered for 14 days by oral glucose tolerance test. The format is functional, organism-based.
For series [18], the system named is Mus musculus. The series is described as follows: Toxicity in KK-Ay mouse assessed as increase in body weight at 10 mg/kg/day, po administered for 14 days relative to vehicle-treated control. Set-up: route oral. The format is organism-based. The settings on record: in vivo, 336 h.
In series [19] the test system is Mus musculus. The experiment in a line: Toxicity in KK-Ay mouse assessed as increase in liver weight at 10 mg/kg/day, po administered for 14 days relative to vehicle-treated control. Format: organism-based. Set-up: route oral. The settings on record: in vivo, 336 h.
The test system of series [20] is Mus musculus. The series is described as follows: Toxicity in KK-Ay mouse assessed as increase in serum triglyceride level at 10 mg/kg/day, po administered for 14 days relative to vehicle-treated control. The format is organism-based. Further details: route oral. The settings on record: in vivo, 336 h.
In series [21] the test system is Mus musculus. The series is described as follows: Toxicity in KK-Ay mouse assessed as increase in total cholesterol level at 10 mg/kg/day, po administered for 14 days relative to vehicle-treated control. Further details: route oral. The format is organism-based. The settings on record: in vivo, 336 h.
The test system of series [22] is Mus musculus. The series is described as follows: Upregulation of Irs1 mRNA expression in KK-Ay mouse liver at 10 mg/kg/day, po administered for 14 days by RT-PCR analysis. Format: functional, organism-based.
Series [23] concerns Mus musculus. The experiment in a line: Upregulation of Scd1 mRNA expression in KK-Ay mouse liver at 10 mg/kg/day, po administered for 14 days by RT-PCR analysis. The format is ADME, organism-based. Set-up: route oral. Conditions: in vivo, 336 h.
Series [24] relates to Mus musculus. The series is described as follows: Upregulation of Srebp1c mRNA expression in KK-Ay mouse liver at 10 mg/kg/day, po administered for 14 days by RT-PCR analysis. Format: functional, organism-based.
The target in series [25] is T3, Retinoic acid receptor RXR-alpha (Homo sapiens) (UniProt P19793).
T3 sequence (whole entry): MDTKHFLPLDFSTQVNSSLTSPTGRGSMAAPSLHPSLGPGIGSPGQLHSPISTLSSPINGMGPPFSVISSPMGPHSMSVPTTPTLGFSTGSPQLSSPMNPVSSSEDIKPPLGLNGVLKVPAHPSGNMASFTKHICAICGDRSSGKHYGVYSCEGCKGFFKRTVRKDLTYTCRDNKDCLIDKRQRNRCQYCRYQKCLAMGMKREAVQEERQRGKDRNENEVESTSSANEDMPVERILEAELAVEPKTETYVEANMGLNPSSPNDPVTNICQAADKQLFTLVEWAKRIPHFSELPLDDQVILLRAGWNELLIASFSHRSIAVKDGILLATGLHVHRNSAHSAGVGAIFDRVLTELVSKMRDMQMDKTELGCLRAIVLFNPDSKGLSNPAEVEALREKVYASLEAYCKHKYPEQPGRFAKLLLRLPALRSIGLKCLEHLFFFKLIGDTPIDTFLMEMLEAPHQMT
The experiment in a line: Agonist activity at RXRalpha expressed in […] Cos1 cells after 18 hrs by SEAP reporter gene assay. Format: functional, cell-based.

In the case of `CCN(c1ccc2c(c1)C(C)(C)CCC2(C)C)c1ccc(C(=O)O)cn1`, the outcome in [1], in [2], in [3], in [4], in [5] and in series [7] was inactive. Also, the result in [22] and in series [24] was inactive. Besides, the Activity entry is “Toxic” in series [6]; “Toxic” in series [12]; “Toxic” in series [13]; “Toxic” in [14]; “Non-toxic” in [15]; 300 mg/dL in series [16]. For the same molecule, the Activity result in [18], in series [19], in [20], in series [21] and in series [23] was “Toxic” throughout. The result in series [8], in series [9], in [10] and in series [17] was Active. In [11], the concentration amounted to 1000 nM.

Consider `Cc1cc2c(cc1-n1nnc3cc(C(=O)O)ccc31)C(C)(C)CCC2(C)C`, for which the concentration in [11] amounted to 1000 nM.

For the molecule `Cc1cc2c(cc1-n1c(C)nc3cc(C(=O)O)ccc31)C(C)(C)CCC2(C)C`, the outcome in series [25], in [8], in series [9] and in series [10] was Active. Also, in series [7], the result was inactive. For the same molecule, the concentration in [11] is 1000 nM. In addition, the values for the Activity result in series [12], in [13] and in series [15] were “Toxic”, “Toxic” and “Non-toxic”, respectively.
